Reference: ChEMBL document CHEMBL1150004, “A general approach toward the design of mechanism-based inactivators of serine proteinases: inactivation of human leukocyte elastase by a phthalimide derivative” (Bioorg Med Chem Lett, 1993)

Target: T1, Neutrophil elastase (Homo sapiens) (UniProt P08246)
T1 sequence (whole entry): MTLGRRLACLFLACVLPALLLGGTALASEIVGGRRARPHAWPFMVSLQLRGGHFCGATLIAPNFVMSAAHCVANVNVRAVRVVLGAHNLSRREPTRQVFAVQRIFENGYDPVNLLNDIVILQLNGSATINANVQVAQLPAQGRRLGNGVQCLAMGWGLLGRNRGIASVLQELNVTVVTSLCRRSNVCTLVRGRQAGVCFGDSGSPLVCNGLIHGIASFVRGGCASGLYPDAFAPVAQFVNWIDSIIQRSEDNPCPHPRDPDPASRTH
Assay: Bimolecular rate constant of the interaction of compound with Human Leukocyte Elastase was evaluated

CCOC(=O)C(F)N1C(=O)c2ccccc2C1=O (stereo unspecified)
K obs / 1: 40 M⁻¹ s⁻¹
